Experimental data reported in patent publication US11215617B2, “Treatment of metastatic prostate cancer” (The Regents of the University of California, priority 2013, dated 2022).
“Also recorded” adds a separate entry of the source. Where a SMILES comes first, the peptide text is derived from it. The star is where a group is joined. Cbz = O=C(OCc1ccccc1)*

Legend:
[1] = tested on: prostate cancer cells (CWR22rv1, C4-2 AR-V7, C4-2 neo); assay: Clonogenic assay; assay type: cell-based; conditions: 0, 0.5, 1.0 μM niclosamide
C4-2B MR cells [2] = assay: Cell growth assay; assay type: cell-based; conditions: different concentrations, 48 hours
Protocol: (§1) Total cell numbers were counted and the cell survival rate (%) was calculated. Cell survival rate (%)=(Treatment group cell number/Control group cell number)×100%. […] Total cell numbers were counted after 2, 4, and 7 days. […] The cells were treated as indicated and total cell numbers were counted.

CWR22rv1 cells [3] = assay: Clonogenic assay
[4] = tested on: recruitment of AR-V7 to PSA promoter; assay: ChIP assay in C4-2 AR-V7 cells; assay type: cell-based; conditions: CS-FBS 3 days, niclosamide (0.5 μM and 1 μM) or 20 μM enzalutamide overnight
Protocol: C4-2 neo and C4-2 AR-V7 cells were treated as noted herein. DNA-AR protein complexes were cross-linked inside the cells by the addition of 1% formaldehyde. Whole-cell extracts were prepared by sonication, and an aliquot of the cross-linked DNA-protein complexes was immunoprecipitated by incubation with the AR-specific antibody (AR-441 obtained from Santa Cruz Biotechnology) overnight at 4° C. with rotation. Chromatin-antibody complexes were isolated from solution by incubation with protein A/G agarose beads for 1 hour at 4° C. with rotation. The bound DNA-protein complexes were washed and eluted from beads with elution buffer (1% SDS and 0.1 mol/L NaHCO3), crosslinking was reversed, and DNA was extracted. The resulting chromatin preparations were analyzed by PCR using primers spanning either the proximal or the distal enhancer AREs of the PSA promoter. Isotype-matched IgG was used as control.

STAT3 [5] = conditions: DU145 cells, shown previously; cited from earlier work
PSA [6] = assay: PSA ELISA of culture supernatants of C4-2 AR-V7 cells; assay type: cell-based; conditions: CS-FBS, 1.0 μM niclosamide overnight
Protocol: PSA levels were measured in the culture supernatants using ELISA (United Biotech, Inc., Mountain View, Calif.) according to the manufacturer's instructions.

C4-2B and C4-2B MR cells = assay: Growth or viability (FIG. 22); assay type: cell-based
CWR22rv1 cells [7] = assay: Cell growth assay; assay type: cell-based; conditions: dose and time dependent
Protocol: Total cell numbers were counted after 3 or 5 days. […] Total cell numbers were counted or the cell survival rate (%) was calculated. Cell survival rate (%)=(Treatment group cell number/Control group cell number)×100%.

PSA [8] = assay: Western blot of PSA protein in C4-2 AR-V7 cells; assay type: cell-based; conditions: CS-FBS, 1.0 μM niclosamide or 20 μM enzalutamide overnight
Protocol: (§3) Whole cell protein extracts were resolved on SDS-PAGE and proteins were transferred to nitrocellulose membranes. […] Tubulin was used to monitor the amounts of samples applied. Following secondary antibody incubation, immunoreactive proteins were visualized with an enhanced chemiluminescence detection system (Millipore, Billerica, Mass.).

[9] = tested on: cancer cell metastasis and migration; conditions: in vitro and in vivo, reported; cited from earlier work
prostate cancer cells = assay: Cell growth, migration, invasion and colony formation (FIGS. 16-19); assay type: cell-based; conditions: effect appears to be dose dependent
LNCaP-s17 cells [10] = assay: Cell growth assay; assay type: cell-based, human
C4-2B MR cells [11] = assay: Clonogenic assay; assay type: cell-based
LNCaP-s17 cells [12] = assay: Cell migration or invasion (FIG. 24); assay type: cell-based, human
[13] = tested on: prostate cancer cells (C4-2 neo, C4-2 AR-V7, CWR22rv1); assay: Cell growth assay (cell numbers counted, cell survival rate); assay type: cell-based; conditions: 0.5 μM niclosamide, 48 hours, media containing FBS
Protocol: as §1

[14] = tested on: pz-HPV7 normal prostate epithelial cells; assay: as above; assay type: cell-based; conditions: 0.5 μM niclosamide, 48 hours
Protocol: as §1

LNCaP-STAT3C cells = assay: Cell migration or invasion (FIG. 25); assay type: cell-based, human
CWR22rv1 xenografts = assay: CWR22rv1 xenograft tumor growth in SCID mice; assay type: in vivo; conditions: 3 weeks
Protocol: CWR22rv1 cells (3 million) were mixed with matrigel (1:1) and injected subcutaneously into the flanks of 6-7 week male SCID mice. […] Tumors were measured using calipers twice a week and tumor volumes were calculated using length×width2/2. Tumor tissues were harvested after 3 weeks of treatment.
Tumors were measured using calipers twice a week and tumor volumes were calculated using length×width2/2. Tumor tissues were harvested after 3 weeks of treatment. The results are depicted in FIGS. 40A-40D.
For the in vivo experiment, CWR22Rv1 cells (4 million) were mixed with matrigel (1:1) and injected subcutaneously into the flanks of male SCID mice. […] Tumors were measured using calipers twice a week and tumor volumes were calculated using length×width2/2. Tumor tissues were harvested after 3 weeks of treatment. The results are depicted in FIGS. 42A-42D.
CWR22Rv1 cells (4 million) were mixed with matrigel (1:1) and injected subcutaneously into the flanks of 6-7 week male SCID mice. […] Tumors were measured using calipers twice a week and tumor volumes were calculated using length×width2/2. Tumor tissues were harvested after 3 weeks of treatment.

pz-HPV7 cells = assay: Cell death ELISA (apoptosis); assay type: cell-based; conditions: 0.5 μM niclosamide, 48 hours
Protocol: (§2) Floating and attached cells were collected and homogenized in 400 μL of incubation buffer. The wells were coated with antihistone antibodies and incubated with the lysates, horseradish peroxidase-conjugated anti-DNA antibodies, and the substrate. Absorbance was measured at 405 nm.

[15] = tested on: prostate cancer cells (C4-2 neo, C4-2 AR-V7, CWR22rv1); assay: Cell death ELISA (apoptosis); assay type: cell-based; conditions: 0.5 μM niclosamide, 48 hours
Protocol: as §2

STAT3 [16] = assay: STAT3 activation in LNCaP-s17 cells; assay type: cell-based, human
Protocol: as §3

normal cells = conditions: some reports suggest; cited from earlier work
[17] = tested on: C4-2B and C4-2B AbiR cells; assay: Growth or viability (FIG. 23); assay type: cell-based
AR = assay: PSA luciferase assay in LNCaP cells, DHT induced; assay type: cell-based, human; conditions: niclosamide or enzalutamide with DHT overnight
Excerpt: LNCaP, C4-2 or 293 cells were transfected with pGL3-PSA6.0-Luc, pGL3-AREI/II-Luc reporters along with AR-V7, for example as indicated in the figures, in FBS or CS-FBS condition. Cell lysates were subjected to luciferase assays with the Luciferase Assay System (Promega).

cancer cells = conditions: some reports suggest; cited from earlier work
AR-V7 = biological target: T1, AR-V7 (Homo sapiens, UniProt P10275); assay: AR-V7 protein degradation after cycloheximide block in CWR22rv1 cells; assay type: cell-based; conditions: MG132 5 μM, cycloheximide 50 μg/mL, 2 μM niclosamide, 8 h
T1 construct: CWR22rv1 cells, which express high endogenous AR-V7; endogenous in cells; host or cells: CWR22rv1
Protocol: At specified time points, cells were harvested, and the levels of AR-V7 protein were measured by Western blot using antibodies specific against AR-V7. […] The cell lysates were prepared at 8 h. AR-V7 protein levels were determined by Western blot analysis using antibodies specifically against AR-V7 and tubulin as a control.
At specified time points, cells were harvested, and the levels of AR-V7 protein were measured by Western blot using antibodies specific against AR-V7.

[18] = C4-2B MR cells, 0.5 μM or 1.0 μM niclosamide, 10 μM or 20 μM enzalutamide

T1 sequence (P10275 1-644 isoform P10275-3): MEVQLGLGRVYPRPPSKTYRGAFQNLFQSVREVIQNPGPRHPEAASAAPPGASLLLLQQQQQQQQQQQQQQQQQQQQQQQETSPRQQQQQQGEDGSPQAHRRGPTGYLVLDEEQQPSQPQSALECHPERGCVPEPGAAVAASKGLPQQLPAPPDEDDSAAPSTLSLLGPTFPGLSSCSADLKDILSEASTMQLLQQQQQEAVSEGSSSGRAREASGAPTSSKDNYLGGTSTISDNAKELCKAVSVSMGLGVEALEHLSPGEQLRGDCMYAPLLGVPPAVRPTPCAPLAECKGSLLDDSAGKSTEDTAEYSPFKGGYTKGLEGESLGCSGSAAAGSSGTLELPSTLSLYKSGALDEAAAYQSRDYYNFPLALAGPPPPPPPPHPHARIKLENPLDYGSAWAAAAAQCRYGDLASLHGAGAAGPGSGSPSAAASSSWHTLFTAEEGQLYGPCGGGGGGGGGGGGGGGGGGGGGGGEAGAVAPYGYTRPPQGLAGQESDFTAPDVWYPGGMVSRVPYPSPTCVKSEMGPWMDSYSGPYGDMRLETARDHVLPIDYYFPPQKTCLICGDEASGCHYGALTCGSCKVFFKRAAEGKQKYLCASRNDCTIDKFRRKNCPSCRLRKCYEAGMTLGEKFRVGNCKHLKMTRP

O=C(Nc1ccc([N+](=O)[O-])cc1Cl)c1cc(Cl)ccc1O [niclosamide, (5-chloro-N-2chloro-4-nitro-phenyl)-2-hydroxybenzamide]
clonogenic ability [1]: significantly inhibited clonogenic ability of prostate cancer cells in a dose dependent manner
cell growth (total cell numbers) (C4-2B MR cells [2]): significantly inhibited; also recorded: inhibited C4-2B MR cell growth in a dose dependent manner
colony formation (CWR22rv1 cells [3]; CWR22rv1 cells, 0, 0.5 μM or 1.0 μM niclosamide): inhibited colony formation in a dose dependent manner
enhancement of enzalutamide inhibition of colony formation (CWR22rv1 cells [3]; CWR22rv1 cells, 0.25 μM niclosamide with 20 μM enzalutamide): significantly enhances enzalutamide inhibition of colony formation
recruitment of AR-V7 to PSA promoter [4]: significantly reduced recruitment of AR-V7 to PSA promoter
STAT3 expression (STAT3 [5]): able to inhibit STAT3 expression
PSA levels (ELISA) (PSA [6]): significantly inhibited PSA levels
enhancement of the effect of enzalutamide on growth or viability (C4-2B and C4-2B MR cells): enhances the effect of enzalutamide
enhancement of bicalutamide effects in vitro (CWR22rv1 cells [7]): significantly enhanced bicalutamide effects
PSA protein expression (western blot) (PSA [8]): significantly inhibited PSA protein expression
cancer cell metastasis and migration [9]: inhibit cancer cell metastasis and migration in vitro and in vivo
cell growth (prostate cancer cells): inhibits
colony formation (prostate cancer cells): inhibits
invasion (prostate cancer cells): inhibits
migration (prostate cancer cells): inhibits
cell growth, time dependent experiment (LNCaP-s17 cells [10]; 20 μM enzalutamide and 0.25 μM niclosamide individually or in combination, 2, 4 and 7 days): little effect
colony formation (C4-2B MR cells [11]; [18]): significantly inhibited colony formation; also recorded: inhibited colony formation in a dose dependent manner
colony size (C4-2B MR cells [11]; [18]): significantly inhibited the colony size
colony formation (C4-2B MR cells [11]; C42B MR cells, 0.25 μM niclosamide (FIGS. 37 and 38)): significantly inhibits colony formation
enhancement of enzalutamide inhibition of colony formation (C4-2B MR cells [11]; C42B MR cells, 0.25 μM niclosamide with 20 μM enzalutamide): significantly enhances enzalutamide inhibition of colony formation
cell migration or invasion (LNCaP-s17 cells [12]): inhibits cell migration or invasion
cell growth [13]: significantly inhibited cell growth
cell growth [14]: little effects
cell migration or invasion (LNCaP-STAT3C cells): inhibits cell migration or invasion
enhancement of bicalutamide effects in vivo (CWR22rv1 xenografts; bicalutamide 25 mg/kg p.o. + niclosamide 25 mg/kg i.p., 5 days per week): enhanced bicalutamide treatment; also recorded: significantly enhanced bicalutamide effects
tumor volume (CWR22rv1 xenografts; enzalutamide 25 mg/kg p.o., niclosamide 25 mg/kg i.p., or both): decreased the tumor volume
xenograft tumor growth (CWR22rv1 xenografts; niclosamide 200 mg/kg p.o. B.I.D., 5 days per week): significantly inhibited Rv1 xenograft tumor growth
cell apoptosis (cell death ELISA) (pz-HPV7 cells): little effect
cell apoptosis (cell death ELISA) [15]: significantly induced cell apoptosis
STAT3 activation (STAT3 [16]): significantly inhibited STAT3 activation; also recorded: inhibited constitutively active STAT3 in a dose dependent manner
viability of normal cells (normal cells): minimal effects on the viability of normal cells
enhancement of the effect of abiraterone on growth or viability [17]: enhances the effect of arbiraterone
DHT induced AR transcriptional activity (AR): dramatically inhibited DHT induced AR transcriptional activity
activity against cancer cells (cancer cells): active against cancer cells

N#C/C(=C/c1ccc(O)c(O)c1)C(=O)NCc1ccccc1 [AG490]
reversal of enzalutamide resistance (LNCaP-s17 cells [10]; 10 μM AG490 with 20 μM enzalutamide, 48 h): reverse enzalutamide resistance

CC(C)C[C@@H](C=O)NC(=O)[C@H](CC(C)C)NC(=O)[C@H](CC(C)C)NC(=O)OCc1ccccc1 [MG132] (Cbz-Leu-Leu-Leu-aldehyde)
niclosamide effect on AR-V7 protein levels in presence of MG132 (AR-V7): able to retard the niclosamide effect on AR-V7 protein levels
